Data as given in US20050203119A1, “Dihydropyridine compounds for treating or preventing metabolic disorders” (priority 2003, published 2005).

Assays:
[1] = tested on: male db/db mice (BKS.Cg-m+/+Lepr db/J); assay: Oral glucose tolerance test (OGTT) in db/db mice (Example 122, FIG. 4); type: in vivo, mouse; conditions: orally dosed
Experimental: To determine the effect of a test compound on blood glucose levels in diabetic mice, intraperitoneal and/or oral glucose tolerance tests (IPGTT and OGTT, respectively) were conducted. Six to eight week old, male db/db mice (BKS.Cg-m+/+Lepr^db/J; stock number 000642), homozygous for a mutation in the gene encoding the leptin receptor, were purchased from The Jackson Laboratory (Bar Harbor, Me. USA). Animals were singly housed in conventional caging on a 12 hr/12 hr light/dark cycle, acclimated for at least five days prior to use and fed normal laboratory chow ad libitum between experiments. Studies were conducted with animals between seven and fourteen weeks of age. […]
To perform an IPGTT or OGTT, db/db mice were fasted overnight beginning on day 0 at −17.5 to −18.5 hrs relative to the glucose dose on day 1 (all time points below are stated relative to the time of an intraperitoneal or oral glucose dose on day 1). At −4.5 hrs, animals were weighed, blood was collected by tail vein lancing and fasted blood glucose levels determined using a hand-held glucometer (MediSense Precision Xtra or LifeScan OneTouch Ultra). […] Blood glucose levels were determined as above at −45 min and +45 min, and also +90 min and/or +150 min (see FIG. 3 and the Table in this section). Alternatively, blood glucose levels were determined at −30 min, +30 min, +60 min and +120 min (see FIGS. 4 and 5). […]

[2] = tested on: Male ZDF rats (ZDF/GmiCrl-fa/fa); assay: Seven day baseline glucose study in fed ZDF rats (Example 124, FIG. 9); type: in vivo, rat; conditions: oral once daily 7 days
Experimental: To determine the effect of a test compound on blood glucose levels in fed and fasted diabetic rats, a 7DBG study was conducted, followed immediately by an 8th day of dosing and an OGTT study on the same animals. Male ZDF rats (ZDF/GmiCrl-fa/fa), homozygous for a mutation in the gene encoding the leptin receptor, were purchased from Charles River Laboratories (Wilmington, Mass., USA). Animals were individually housed in clear polycarbonate cages (contact bedding) on a 12 hr/12 hr light/dark cycle, acclimated for at least one week prior to use and fed normal laboratory chow (Purina No. 5008) ad libitum. Studies were conducted with animals starting between eleven and twelve weeks of age. Animals were used for a single study before being replaced.
To perform a 7DBG plus OGTT study, animals were bled by tail vein lancing on day 0, 24 hrs prior to the first drug dose on day 1, and blood glucose levels were measured by a hand-held glucometer. Animals were randomized into dosing groups of 6 animals, with each group having a similar starting average glucose level. […] Blood glucose levels were determined daily using a hand-held glucometer 3 hrs after the first dose on days 1 through 7.
The serum glucose levels on days 3 or 7 as a percent of the serum glucose levels on day 0 for individual animals in each group (6 rats/group), were calculated using Formula 3. […]

SMILES: CCOC(=O)C1=C(COCCN)NC2=C(C(=O)CC(C)(C)C2)C1c1cccnc1 (stereo not drawn) [Compound 39, 2-(2-Amino-ethoxymethyl)-7,7-dimethyl-5-oxo-4-pyridin-3-yl-1,4,5,6,7,8-hexahydro-quinoline-3-carboxylic acid ethyl ester]
- glucose intolerance relative to vehicle-treated animals (FIG. 4) [1]: decreased
- glucose lowering activities of metformin in combination with Compound 39 (FIG. 9) [2]: enhanced
- serum glucose (FIG. 9) ([2]; Compound 39 alone): decreased serum glucose
